Results: patent publication US20260130395A1, “Water Dispersible Botanical Compositions” (Aquila Black Limited, priority 2021, published 2026)

Experiment: Stability of cannabinoid compounds and Vitamin E components in Beverage 2 (AB Red) by LCMSMS
Assay type: physicochemical

Measured: Stability of Vitamin Es in AB Red

Cc1c(C)c2c(c(C)c1OC(=O)CCC(=O)O)CC[C@@](C)(CCC[C@H](C)CCC[C@H](C)CCCC(C)C)O2 [α-Tocopheryl succinate]
10.3 µg/mL: stored at 21-25° C., 540 days
12.2 µg/mL: stored at 8° C., 24 days | stored at 8° C., 120 days
10.6 µg/mL: stored at 8° C., 570 days | stored at 21-25° C., 510 days | stored at 21-25° C., 570 days
11.4 µg/mL: stored at 8° C., 60 days | stored at 8° C., 180 days | stored at 8° C., 210 days | stored at 21-25° C., 150 days | stored at 21-25° C., 300 days | stored at 21-25° C., 330 days
12.0 µg/mL: stored at 8° C., 23 days | stored at 8° C., 25 days | stored at 21-25° C., 2 days | stored at 21-25° C., 8 days | stored at 21-25° C., 10 days | stored at 21-25° C., 11 days
12.3 µg/mL: stored at 21-25° C., 180 days
11.7 µg/mL: stored at 8° C., 1 days | stored at 8° C., 2 days | stored at 8° C., 3 days | stored at 8° C., 19 days | stored at 8° C., 330 days | stored at 21-25° C., 9 days | stored at 21-25° C., 60 days
10.8 µg/mL: stored at 8° C., 510 days | stored at 21-25° C., 390 days
10.9 µg/mL: stored at 8° C., 480 days | stored at 8° C., 540 days
12.5 µg/mL: stored at 8° C., 0 days | stored at 8° C., 15 days | stored at 8° C., 26 days | stored at 21-25° C., 0 days | stored at 21-25° C., 1 days
11.1 µg/mL: stored at 21-25° C., 360 days
11.5 µg/mL: stored at 8° C., 5 days | stored at 8° C., 16 days | stored at 8° C., 90 days | stored at 8° C., 150 days | stored at 8° C., 270 days | stored at 21-25° C., 120 days
10.4 µg/mL: stored at 21-25° C., 480 days
12.7 µg/mL: stored at 8° C., 12 days | stored at 21-25° C., 23 days
11.6 µg/mL: stored at 8° C., 29 days | stored at 8° C., 240 days | stored at 21-25° C., 15 days | stored at 21-25° C., 16 days | stored at 21-25° C., 22 days | stored at 21-25° C., 90 days | stored at 21-25° C., 210 days | stored at 21-25° C., 240 days
11.3 µg/mL: stored at 8° C., 360 days
12.6 µg/mL: stored at 8° C., 8 days | stored at 8° C., 10 days | stored at 21-25° C., 17 days
11.8 µg/mL: stored at 8° C., 9 days
12.1 µg/mL: stored at 8° C., 11 days | stored at 21-25° C., 18 days | stored at 21-25° C., 26 days | stored at 21-25° C., 30 days
11.9 µg/mL: stored at 8° C., 18 days | stored at 8° C., 22 days | stored at 21-25° C., 3 days | stored at 21-25° C., 5 days | stored at 21-25° C., 19 days | stored at 21-25° C., 25 days
11.0 µg/mL: stored at 8° C., 420 days | stored at 21-25° C., 270 days | stored at 21-25° C., 420 days
12.4 µg/mL: stored at 8° C., 17 days | stored at 8° C., 30 days | stored at 21-25° C., 12 days | stored at 21-25° C., 24 days | stored at 21-25° C., 29 days
11.2 µg/mL: stored at 8° C., 300 days | stored at 8° C., 390 days | stored at 8° C., 450 days | stored at 21-25° C., 450 days
